Measured values from patent publication US20250243180A1, “TARGETED PROTEIN DEGRADATION” (Monte Rosa Therapeutics AG, priority 2023, published 2025).
Where two headings read alike, the source gives them in different places.

How the values were obtained:
CRBN-DDB1 = CRBN-DDB1 (Homo sapiens (Human), UniProt Q96SW2); assay: Compound binding to CRBN by HTRF assay
Description: Compound activity was monitored in a Homogenous Time-Resolved Fluorescence (HTRF) assay using 1-[5-({2-[2-(2-{[2-(2,6-dioxopiperidin-3-yl)-1,3-dioxo-2,3-dihydro-1H-isoindol-4-yl]oxy}acetamido)ethoxy]ethyl}carbamoyl)pentyl]-3,3-dimethyl-2-[(1E,3E)-5-[(2E)-1,3,3-trimethyl-5-sulfo-2,3-dihydro-1H-indol-2-ylidene]penta-1,3-dien-1-yl]-3H-indol-1-ium-5-sulfonate as a fluorescent probe. Biochemical assays were conducted in Greiner white 384 well HiBase plates (Cat. No 784075-25) in 20 μL total volume. A one pot detection solution of CRBN-DDB1 (2.5 nM), Anti-His Terbium Cryptate Gold (1×, PerkinElmer Cat. #: 61HI2TLB), and Cy5-Thalidomide (100 nM, Tenova Cat.: T52461) was prepared in 20 mM HEPES, 20 mM NaCl, 0.2 mM TCEP, 0.2 mM EDTA, and 0.005% Tween20 was dispensed to each assay plate. Compounds were stored in dry, ambient temperatures at 10 mM. An 11-point, 1:3 dilution series was prepared from 10 mM stock concentrations in Echo-compatible LDV plates. 10 nL of each compound dilution series was dispensed into assays wells using an Echo 650 (Labcyte Inc. USA). 20 nL of 10 mM Lenalidomide was transferred into the active-control wells for the assay and 20 nL of DMSO was transferred into the neutral-control wells. The assay was then allowed to incubate for 30 min at ambient temperature after transferring compound. Plate measurements were taken on a Pherastar FSX (BMG Labtech, Germany) using the HTRF Red filter (Ex. 337 nm, em1: 620 nm, em2: 665 nm) (Flashes: 50, Integration time: 60-400 us, Z-height: 10 mm, Ratio-multiplier: 10,000). The HTRF signal was then subsequently normalized to the neutral and active controls. Analysis and EC50 values were derived using KNIME analytics (KNIME Zurich) transformation and fitting within Collaborative Drug Discovery (Collaborative Drug Discovery USA). Ki was derived from the geometric mean of the EC50 values using the Cheng-Prustoff transformation.

NEK7 = NEK7 (Homo sapiens (Human), UniProt Q8TDX7+Q96SW2); assay: NEK7 NanoBiT degradation assay in Cal51 NEK7 NanoBiT cell line; type: cell-based; conditions: Cal51 NEK7 NanoBiT cells, 24 hours; for Dmax: CAL-51
Description: Cal51 NEK7 NanoBiT cell line was generated via CRISPR Knock-In of the HiBiT tag in NEK7 gene and stable infection with a lentivirus carrying LgBiT protein. The cell line was generated in house. For the experiment, cells were plated in 384-well white flat bottom plates (Corning, 3570BC) at 2500 cells per well using Multiflo (BioTek/Agilent) and in 25 μl volume in DMEM experimental medium: DMEM (DMEM, high glucose, HEPES, no phenol red (ThermoFisher Scientific, 21063029) supplemented with 10% FBS (Corning, 35-075-CV), 1% Penicillin/Streptomycin ((ThermoFisher Scientific, 15140-122), and 1% Endurazine (Nano-Glo Endurazine Live Cell Substrate (Promega, N2571)). Cells were incubated for 16 hours at 37° C., 5% CO2 before compound addition. For dose response determination, 2.5 nL of a compound at different concentrations (stock compound concentration range: 10 mM to 0.5 μM, final concentration range inside cell plate: 1 μM to 0.05 nM) were dispensed into the plate using an Echo® 650 liquid handling device (Backman Coulter/Labcyte). Cells were incubated at 37° C., 5% CO2 for 24 hours and then signal was read on a Pherastar FSX using “LUM plus” optic module with 4095 gain and measurement interval time 0.2 seconds.
Analysis was performed in Genedata Screener (Genedata, Basel, CH). Luminescence response (R) was calculated by the formula: response=100*(S−N)/(P−N) where S is the signal of the well, N and P the mean negative and positive control values respectively of the same plate. The luminescence response was then fitted in Genedata using a 4-parameter antagonist logistic fit (hill slope unconstrained, EC50>0, top/bottom unconstrained).

[1] = NEK7 degradation, read-out: NanoBiT Dmax
[2] = NEK7 degradation, read-out: NanoBiT DC50

Sequence of CRBN-DDB1 (Q96SW2 whole entry): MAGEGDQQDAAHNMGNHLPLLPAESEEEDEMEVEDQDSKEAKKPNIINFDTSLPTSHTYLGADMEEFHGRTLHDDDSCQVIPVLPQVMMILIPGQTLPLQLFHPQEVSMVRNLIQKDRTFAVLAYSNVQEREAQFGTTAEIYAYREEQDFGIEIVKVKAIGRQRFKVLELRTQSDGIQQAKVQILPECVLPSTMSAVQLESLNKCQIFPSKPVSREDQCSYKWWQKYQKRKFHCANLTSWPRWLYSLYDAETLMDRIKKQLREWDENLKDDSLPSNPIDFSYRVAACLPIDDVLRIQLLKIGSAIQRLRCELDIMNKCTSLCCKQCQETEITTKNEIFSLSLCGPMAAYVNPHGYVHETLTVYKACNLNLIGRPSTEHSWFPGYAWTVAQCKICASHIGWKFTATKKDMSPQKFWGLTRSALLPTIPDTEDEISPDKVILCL
Sequence of CRBN-DDB1 (Q16531 whole entry partner): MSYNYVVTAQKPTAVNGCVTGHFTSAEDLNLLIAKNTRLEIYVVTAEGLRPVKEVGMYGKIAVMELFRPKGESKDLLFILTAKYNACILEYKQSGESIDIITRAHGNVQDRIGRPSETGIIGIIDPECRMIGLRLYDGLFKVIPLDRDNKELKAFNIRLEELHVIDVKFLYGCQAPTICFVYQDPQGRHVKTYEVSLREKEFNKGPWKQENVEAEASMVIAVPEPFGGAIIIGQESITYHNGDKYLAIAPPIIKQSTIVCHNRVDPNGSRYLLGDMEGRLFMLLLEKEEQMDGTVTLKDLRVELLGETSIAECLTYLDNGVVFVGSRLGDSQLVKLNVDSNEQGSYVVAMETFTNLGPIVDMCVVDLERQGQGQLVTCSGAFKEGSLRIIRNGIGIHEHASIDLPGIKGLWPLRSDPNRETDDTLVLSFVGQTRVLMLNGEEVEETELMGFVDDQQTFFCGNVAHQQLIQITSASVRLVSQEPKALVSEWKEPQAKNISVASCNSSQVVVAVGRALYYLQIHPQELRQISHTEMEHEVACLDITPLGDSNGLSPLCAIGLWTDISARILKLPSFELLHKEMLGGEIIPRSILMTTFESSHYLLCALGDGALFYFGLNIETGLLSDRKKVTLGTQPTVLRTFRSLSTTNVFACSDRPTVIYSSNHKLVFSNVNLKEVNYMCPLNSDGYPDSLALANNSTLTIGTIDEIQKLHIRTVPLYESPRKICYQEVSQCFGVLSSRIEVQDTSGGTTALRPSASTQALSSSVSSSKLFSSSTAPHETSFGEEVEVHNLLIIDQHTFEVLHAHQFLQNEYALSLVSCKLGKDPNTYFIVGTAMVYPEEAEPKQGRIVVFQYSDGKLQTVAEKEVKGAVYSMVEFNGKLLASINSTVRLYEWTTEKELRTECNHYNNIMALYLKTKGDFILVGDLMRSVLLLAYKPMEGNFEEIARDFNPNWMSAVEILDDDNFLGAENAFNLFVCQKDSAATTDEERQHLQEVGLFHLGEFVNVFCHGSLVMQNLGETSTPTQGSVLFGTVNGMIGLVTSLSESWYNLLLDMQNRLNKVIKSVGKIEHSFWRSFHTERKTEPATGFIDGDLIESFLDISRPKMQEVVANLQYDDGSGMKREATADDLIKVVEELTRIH
Sequence of NEK7 (Q8TDX7 whole entry): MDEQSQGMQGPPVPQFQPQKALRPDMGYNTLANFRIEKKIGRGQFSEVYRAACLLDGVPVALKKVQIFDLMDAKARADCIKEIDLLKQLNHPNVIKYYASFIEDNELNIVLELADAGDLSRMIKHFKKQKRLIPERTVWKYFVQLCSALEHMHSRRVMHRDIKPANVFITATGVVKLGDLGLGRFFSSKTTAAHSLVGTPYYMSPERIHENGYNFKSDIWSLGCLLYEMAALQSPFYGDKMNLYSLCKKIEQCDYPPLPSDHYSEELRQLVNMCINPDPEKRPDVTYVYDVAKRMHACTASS
Sequence of NEK7 (Q96SW2 whole entry): as the sequence (Q96SW2 whole entry) above
Sequence of NEK7 (Q16531 2-1140 partner): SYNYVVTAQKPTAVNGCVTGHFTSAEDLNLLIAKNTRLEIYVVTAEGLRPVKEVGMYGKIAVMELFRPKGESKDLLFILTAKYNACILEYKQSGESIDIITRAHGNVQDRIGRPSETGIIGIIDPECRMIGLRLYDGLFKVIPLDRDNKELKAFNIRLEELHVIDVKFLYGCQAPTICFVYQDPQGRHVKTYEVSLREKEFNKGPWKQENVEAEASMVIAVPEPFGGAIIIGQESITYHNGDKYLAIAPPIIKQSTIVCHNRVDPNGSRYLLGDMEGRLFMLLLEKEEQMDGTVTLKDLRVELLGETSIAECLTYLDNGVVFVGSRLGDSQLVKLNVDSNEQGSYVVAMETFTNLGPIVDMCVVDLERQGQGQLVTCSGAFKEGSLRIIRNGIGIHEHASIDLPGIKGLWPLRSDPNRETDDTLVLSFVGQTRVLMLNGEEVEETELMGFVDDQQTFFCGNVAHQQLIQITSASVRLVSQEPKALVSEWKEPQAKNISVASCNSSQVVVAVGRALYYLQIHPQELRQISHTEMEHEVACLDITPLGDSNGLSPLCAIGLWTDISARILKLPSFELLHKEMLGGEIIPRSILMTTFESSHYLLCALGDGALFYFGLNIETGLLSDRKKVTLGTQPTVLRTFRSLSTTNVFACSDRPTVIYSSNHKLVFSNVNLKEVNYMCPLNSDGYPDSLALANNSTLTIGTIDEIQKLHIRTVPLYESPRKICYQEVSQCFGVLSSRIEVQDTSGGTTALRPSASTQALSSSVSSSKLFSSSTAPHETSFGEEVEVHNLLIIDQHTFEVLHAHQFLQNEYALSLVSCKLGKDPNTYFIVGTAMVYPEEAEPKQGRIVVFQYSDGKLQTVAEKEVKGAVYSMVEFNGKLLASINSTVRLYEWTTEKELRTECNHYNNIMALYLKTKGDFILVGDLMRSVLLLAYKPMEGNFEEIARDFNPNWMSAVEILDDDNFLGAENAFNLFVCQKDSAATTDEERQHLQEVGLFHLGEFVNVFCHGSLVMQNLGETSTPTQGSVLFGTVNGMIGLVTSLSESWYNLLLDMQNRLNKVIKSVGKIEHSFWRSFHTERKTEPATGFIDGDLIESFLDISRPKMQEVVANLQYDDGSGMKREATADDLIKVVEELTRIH

SMILES | EC50 (CRBN-DDB1) [nM] | EC50 (CRBN-DDB1; HTRF class, Cereblon binding) [nM] | Dmax (NEK7; read-out: NEK7 NanoBiT Dmax) [%] | Dmax (NEK7; [1]) [%] | DC50 (NEK7; read-out: NEK7 NanoBiT DC50) [nM] | DC50 (NEK7; [2]) [nM]
CC(C)(C(=O)NCc1cc(Cl)c(C2CCC(=O)NC2=O)c(Cl)c1)c1cccc(F)c1 (stereo not drawn) [Compound 27] | 50 | ≤ 100 | 96 | > 75 | 1 | ≤ 100
CC(C)(C(=O)NCc1ccc(C2CCC(=O)NC2=O)c(Cl)c1)c1ccc(C#N)cc1 (stereo not drawn) [Compound 28] | 470 | 100 to 1000 | 91 | > 75 | 17 | ≤ 100
CC(C)(C(=O)NCc1cc(Cl)c(C2CCC(=O)NC2=O)c(Cl)c1)c1ccc(C#N)cc1 (stereo not drawn) [Compound 29] | 80 | ≤ 100 | 97 | > 75 | 0.4 | ≤ 100
CC(C)(C(=O)NCc1ccc(C2CCC(=O)NC2=O)c(Cl)c1)c1ccc(F)cc1 (stereo not drawn) [Compound 30] | 350 | 100 to 1000 | 92 | > 75 | 12 | ≤ 100
CC(C)(C(=O)NCc1cc(F)c(C2CCC(=O)NC2=O)c(Cl)c1)c1ccccc1 (stereo not drawn) [Compound 31] | 130 | 100 to 1000 | 93 | > 75 | 6 | ≤ 100
CC(C)(C(=O)NCc1cc(Cl)c(C2CCC(=O)NC2=O)c(Cl)c1)c1ccc2c(c1)S(=O)(=O)NC2 (stereo not drawn) [Compound 32, N-(3,5-dichloro-4-(2,6-dioxopiperidin-3-yl)benzyl)-2-(1,1-dioxido-2,3-dihydrobenzo[d]isothiazol-6-yl)-2-methylpropanamide] | 110 | 100 to 1000 | 95 | > 75 | 4 | ≤ 100
CC(C)(C(=O)NCc1cc(Cl)c(C2CCC(=O)NC2=O)c(Cl)c1)c1ccc2ncncc2c1 (stereo not drawn) [Compound 33] | 120 | 100 to 1000 | 96 | > 75 | 2 | ≤ 100
CC(C)(C(=O)NCc1cc(Cl)c(C2CCC(=O)NC2=O)c(Cl)c1)c1ccc2cnncc2c1 (stereo not drawn) [Compound 35, N-(3,5-dichloro-4-(2,6-dioxopiperidin-3-yl)benzyl)-2-methyl-2-(phthalazin-6-yl)propanamide] | 130 | 100 to 1000 | 77 | > 75 | 19 | ≤ 100
CC(C)(C(=O)NCc1cc(Cl)c(C2CCC(=O)NC2=O)c(Cl)c1)c1cc(F)c(S(N)(=O)=O)c(F)c1 (stereo not drawn) [Compound 36, N-(3,5-dichloro-4-(2,6-dioxopiperidin-3-yl)benzyl)-2-(3,5-difluoro-4-sulfamoylphenyl)-2-methylpropanamide] | 80 | ≤ 100 | 95 | > 75 | 5 | ≤ 100
CC1(C(=O)NCc2cc(Cl)c(C3CCC(=O)NC3=O)c(Cl)c2)COc2ccccc2C1 (stereo not drawn) [Compound 38, N-(3,5-dichloro-4-(2,6-dioxopiperidin-3-yl)benzyl)-3-methylchromane-3-carboxamide] | 40 | ≤ 100 | 90 | > 75 | 6 | ≤ 100
Cc1cc(C(C)(C)C(=O)NCc2cc(Cl)c(C3CCC(=O)NC3=O)c(Cl)c2)cc(=O)[nH]1 (stereo not drawn) [Compound 42, N-(3,5-dichloro-4-(2,6-dioxopiperidin-3-yl)benzyl)-2-methyl-2-(6-methyl-2-oxo-1,2-dihydropyridin-4-yl)propanamide] | 180 | 100 to 1000 | 93 | > 75 | 20 | ≤ 100

Next, values leading:

EC50 (CRBN-DDB1) [nM] | EC50 (CRBN-DDB1; HTRF class, Cereblon binding) [nM] | Dmax (NEK7; read-out: NEK7 NanoBiT Dmax) [%] | Dmax (NEK7; [1]) [%] | DC50 (NEK7; read-out: NEK7 NanoBiT DC50) [nM] | DC50 (NEK7; [2]) [nM] | SMILES
50 | ≤ 100 | 97 | > 75 | 2 | ≤ 100 | CC(C)(C(=O)NCc1cc(Cl)c(C2CCC(=O)NC2=O)c(Cl)c1)c1ccc(S(N)(=O)=O)c(F)c1 (stereo not drawn) [Compound 39, N-(3,5-dichloro-4-(2,6-dioxopiperidin-3-yl)benzyl)-2-(3-fluoro-4-sulfamoylphenyl)-2-methylpropanamide]
100 | ≤ 100 | 93 | > 75 | 8 | ≤ 100 | CC(C)(C(=O)NCc1cc(Cl)c(C2CCC(=O)NC2=O)c(Cl)c1)c1ccc2c(c1)CNS2(=O)=O (stereo not drawn) [Compound 40]
60 | ≤ 100 | 98 | > 75 | 0.4 | ≤ 100 | CC(C)(C(=O)NCc1cc(Cl)c(C2CCC(=O)NC2=O)c(Cl)c1)c1ccc2nnccc2c1 (stereo not drawn) [Compound 41]
40 | ≤ 100 | 97 | > 75 | 1 | ≤ 100 | CC(C)(C(=O)NCc1cc(Cl)c(C2CCC(=O)NC2=O)c(Cl)c1)c1ccc(S(N)(=O)=O)cc1F (stereo not drawn) [Compound 43]
230 | 100 to 1000 | 88 | > 75 | 38 | ≤ 100 | CC(C)(C(=O)NCc1cc(Cl)c(C2CCC(=O)NC2=O)c(Cl)c1)c1ccn2cnnc2c1 (stereo not drawn) [Compound 44]
530 | 100 to 1000 | 91 | > 75 | 13 | ≤ 100 | CCn1ccc(C(C)(C)C(=O)NCc2cc(Cl)c(C3CCC(=O)NC3=O)c(Cl)c2)cc1=O (stereo not drawn) [Compound 45]
50 | ≤ 100 | 71 | 50 to 75 | 61 | ≤ 100 | COc1nccc(C(C)(C)C(=O)NCc2cc(Cl)c(C3CCC(=O)NC3=O)c(Cl)c2)n1 (stereo not drawn) [Compound 46]
30 | ≤ 100 | 85 | > 75 | 4 | ≤ 100 | CC1(C(=O)NCc2cc(Cl)c(C3CCC(=O)NC3=O)c(Cl)c2)COc2ccccc2O1 (stereo not drawn) [Compound 47]
130 | 100 to 1000 | 66 | 50 to 75 | 54 | ≤ 100 | CN1Cc2ccccc2CC1C(=O)NCc1cc(Cl)c(C2CCC(=O)NC2=O)c(Cl)c1 (stereo not drawn) [Compound 48]
70 | ≤ 100 | 99 | > 75 | 0.1 | ≤ 100 | CC(C)(C(=O)NCc1cc(Cl)c(C2CCC(=O)NC2=O)c(Cl)c1)c1ccc2nccnc2c1 (stereo not drawn) [Compound 49]
150 | 100 to 1000 | 88 | > 75 | 18 | ≤ 100 | CC(C)(C(=O)NCc1cc(Cl)c(C2CCC(=O)NC2=O)c(Cl)c1)c1ccc(NS(C)(=O)=O)cc1 (stereo not drawn) [Compound 50]
70 | ≤ 100 | 96 | > 75 | 1 | ≤ 100 | CC(C)(C(=O)NCc1cc(Cl)c(C2CCC(=O)NC2=O)c(Cl)c1)c1ccc(C(N)=O)cc1F (stereo not drawn) [Compound 51]
90 | ≤ 100 | 67 | 50 to 75 | 59 | ≤ 100 | CC(C)(C(=O)NCc1cc(Cl)c(C2CCC(=O)NC2=O)c(Cl)c1)c1cnc2ncsc2c1 (stereo not drawn) [Compound 52]
